Assay results taken from US5356921A, “Imidazolylphenol compounds, pharmaceutical compositions containing them, and processes for preparing such compounds and compositions” (Gruenenthal GmbH, priority 1992, dated 1994).

Legend:
Format in all cases: cell-based
[1] = test system: Leukotriene-Synthesis Induced by FMLP/Merthiolate of Human Polymorphonuclear Leukocytes; assay: Inhibition of leukotriene-synthesis induced by FMLP/merthiolate of human polymorphonuclear leukocytes (reversibility); conditions: Leukocyte, human granulocytes, preincubated 5 minutes, centrifuged, resuspended, read-out: IC50-value of the reversible inhibitory action
Protocol: (§1) Human granulocytes were isolated by dextran-sedimentation and a Percoll gradient method and suspended in HBSS (Hanks buffered salt solution) at1×10^7 cells/mi. The cells were incubated in presence of a compound according to the invention or a solvent (ethanol and/or dimethyl sulfoxide) at 37° C. for 2 minutes, then with merthiolate (sodium ethylmercurithiosalicylate; 40 μM) for 2 minutes, and thereafter with FMLP (formyl-methionyl-leucylphenylalanine; 10^-7 M) for 15 minutes. After solid phase extraction the metabolites of arachidonic acid 5-HETE, LTB4, 6-trans-LTB4 -isomers, 20-OH-LTB4 and 20-COOH-LTB4 were identified by RP-HPLC [M. Haurand and L. Flohe in Biochem. Pharmacol. 38, 2129-37 (1989)].
To examine the reversibility of the inhibitory action the cells were incubated with a compound according the invention or a solvent (ethanol and/or dimethyl sulfoxide) at 37° C. for 5 minutes, centrifuged at 300×g for 5 minutes and resuspended in 2 ml HBSS. Then the cells were incubated with merthiolate (40 μM) at 37° C. for 2 minutes and thereafter with FMLP (10^-7 M) for 15 minutes. The IC50 -value of the reversible inhibitory action was 2μmolar when the compound prepared according to Example 1 was used.

[2] = test system: 12-lipoxygenase; assay: Inhibition of 12-HETE- and 5S,12S-DiHETE-synthesis induced by FMLP/merthiolate of human polymorphonuclear leukocytes and thrombocytes; conditions: coincubated human granulocytes and thrombocytes
Protocol: as §1
Coincubations of human granulocytes and thrombocytes were carried out and investigated according to the inhibition of leukotriene-synthesis induced by FMLP/merthiolate. 12-HETE and 5S,12S-dihydroxy-HETE (5S,12S-DiHETE) were additionally included in the evaluation.

[3] = molecular target: T1, thromboxane synthase (Homo sapiens, UniProt P24557); assay: Inhibition of thromboxane synthase (human thrombocytes); conditions: for IC50: human thrombocytes, arachidonic acid 3.5 μM, read-out: IC50-Value, inhibition of thromboxane synthase (TXB2 formation); for inhibitory action on thromboxane synthase: in words
T1 construct: human thrombocytes were isolated from platelet-rich plasma; endogenous in cells; host or cells: human thrombocytes (platelets), intact
T1 sequence (P24557 1-533): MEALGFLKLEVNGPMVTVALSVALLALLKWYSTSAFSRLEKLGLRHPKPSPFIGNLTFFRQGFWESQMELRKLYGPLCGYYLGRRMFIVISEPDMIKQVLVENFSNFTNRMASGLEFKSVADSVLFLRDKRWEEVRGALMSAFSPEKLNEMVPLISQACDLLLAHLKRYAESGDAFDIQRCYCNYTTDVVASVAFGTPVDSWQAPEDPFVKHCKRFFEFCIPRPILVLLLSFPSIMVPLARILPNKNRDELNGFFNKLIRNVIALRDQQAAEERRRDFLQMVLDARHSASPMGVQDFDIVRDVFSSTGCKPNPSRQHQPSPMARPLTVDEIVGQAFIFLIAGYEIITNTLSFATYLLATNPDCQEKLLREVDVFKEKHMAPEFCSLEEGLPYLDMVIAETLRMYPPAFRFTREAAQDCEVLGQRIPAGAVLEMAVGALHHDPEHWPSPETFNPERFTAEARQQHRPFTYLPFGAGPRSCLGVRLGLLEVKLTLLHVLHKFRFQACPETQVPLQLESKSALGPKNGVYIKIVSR
Protocol: After addition of prostacyclin, human thrombocytes were isolated from platelet-rich plasma and suspended in Tyrode-Hepes buffer of pH 7.4 at 2×10^8 cells/ml. One ml aliquots of cells were incubated either with a compound according to the invention (0.1 to 100 μM) or a solvent (ethanol and/or dimethyl sulfoxide) at 37° C. for 3 minutes and thereafter with radioactively labelled arachidonic acid (3.5 μM) for 5 minutes. The reaction was stopped and the metabolites of arachidonic acid were extracted by adding methanol, chloroform and formic acid. After evaporation of the chloroform-containing layer to dryness under nitrogen, the residue obtained was resuspended in 50 μl chloroform and analyzed by thin layer chromatography. The distribution of the radioactivity of the different metabolites of arachidonic acid was measured using a TLC linear analyzer.

In the case of `NC(=O)N(O)Cc1ccc(Oc2ccc(-n3ccnc3)cc2)cc1` [Example 1, N-hydroxy-N-[4-[4-(1H-imidazol-1-yl)phenoxy]phenylmethyl]urea], the IC50 [1] is reported as 2000 nM, the “inhibitory action on 12-lipoxygenase” value [2] is reported as “did not exert an inhibitory action on 12-lipoxygenase” and the IC50 [3] is reported as 2800 nM. The “inhibitory action on thromboxane synthase” value [3] was “same inhibitory potency as the hydrochloride of the imidazolylethoxybenzoic acid UK 37 248”.

With `CC(=O)N(O)Cc1ccc(Oc2ccc(-n3ccnc3)cc2)cc1` [Example 3, N-hydroxy-N-[4-[4-(1H-imidazol-1-yl)phenoxy]phenylmethyl]acetamide] the IC50 [3] was 2900 nM and the “inhibitory action on thromboxane synthase” value [3] was “same inhibitory potency as the hydrochloride of the imidazolylethoxybenzoic acid UK 37 248”.
